The target in one experiment is α4β2* nicotinic receptor (Rattus norvegicus, UniProt P09483+P12390). Nature of the experiment: High affinity [3H]nicotine binding assay. Also on record: The pellet containing the striatal membranes was resuspended; from tissue; host or cells: rat striatal membranes.
The target of experiment [1] is T1, dopamine transporter (DAT) (Rattus norvegicus, UniProt P23977).
T1 construct: Striata were homogenized in 20 ml of ice-cold sucrose solution; from tissue; host or cells: striatal synaptosomes
T1 sequence (P23977 whole entry): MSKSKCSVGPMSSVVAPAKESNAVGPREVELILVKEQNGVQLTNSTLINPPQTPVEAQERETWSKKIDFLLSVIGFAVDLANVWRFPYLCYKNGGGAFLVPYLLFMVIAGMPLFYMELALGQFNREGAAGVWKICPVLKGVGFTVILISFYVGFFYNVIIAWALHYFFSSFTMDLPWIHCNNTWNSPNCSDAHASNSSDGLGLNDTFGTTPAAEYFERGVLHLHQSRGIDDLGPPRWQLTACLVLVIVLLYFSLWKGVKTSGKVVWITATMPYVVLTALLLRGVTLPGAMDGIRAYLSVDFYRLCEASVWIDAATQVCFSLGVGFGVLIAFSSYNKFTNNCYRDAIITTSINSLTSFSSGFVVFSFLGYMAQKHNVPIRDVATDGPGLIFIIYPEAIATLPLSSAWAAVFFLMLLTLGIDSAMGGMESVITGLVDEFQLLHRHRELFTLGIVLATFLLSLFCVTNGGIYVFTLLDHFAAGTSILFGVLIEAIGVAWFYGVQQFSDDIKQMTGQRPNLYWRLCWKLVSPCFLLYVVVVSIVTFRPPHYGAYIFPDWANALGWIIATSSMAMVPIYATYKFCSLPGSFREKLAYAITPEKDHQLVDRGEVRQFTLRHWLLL
The experiment can be described thus: [3H]Dopamine uptake assay, striatal synaptosomes. It counts as biochemical.

A further experiment addresses T2, α7* nicotinic receptor (Rattus norvegicus, UniProt Q05941).
T2 construct: Whole rat brain (minus cortex, striatum and cerebellum) was homogenized; from tissue; host or cells: rat whole brain membranes (minus cortex, striatum and cerebellum)
Nature of the experiment: [3H]Methyllycaconitine ([3H]MLA) binding assay.

Experiment [2] deals with T3, serotonin transporter (SERT) (Rattus norvegicus, UniProt P31652).
T3 construct: Rat hippocampus was homogenized in 20 mL cold 0.32 M sucrose; from tissue; host or cells: rat hippocampal synaptosomes
T3 sequence (P31652 whole entry): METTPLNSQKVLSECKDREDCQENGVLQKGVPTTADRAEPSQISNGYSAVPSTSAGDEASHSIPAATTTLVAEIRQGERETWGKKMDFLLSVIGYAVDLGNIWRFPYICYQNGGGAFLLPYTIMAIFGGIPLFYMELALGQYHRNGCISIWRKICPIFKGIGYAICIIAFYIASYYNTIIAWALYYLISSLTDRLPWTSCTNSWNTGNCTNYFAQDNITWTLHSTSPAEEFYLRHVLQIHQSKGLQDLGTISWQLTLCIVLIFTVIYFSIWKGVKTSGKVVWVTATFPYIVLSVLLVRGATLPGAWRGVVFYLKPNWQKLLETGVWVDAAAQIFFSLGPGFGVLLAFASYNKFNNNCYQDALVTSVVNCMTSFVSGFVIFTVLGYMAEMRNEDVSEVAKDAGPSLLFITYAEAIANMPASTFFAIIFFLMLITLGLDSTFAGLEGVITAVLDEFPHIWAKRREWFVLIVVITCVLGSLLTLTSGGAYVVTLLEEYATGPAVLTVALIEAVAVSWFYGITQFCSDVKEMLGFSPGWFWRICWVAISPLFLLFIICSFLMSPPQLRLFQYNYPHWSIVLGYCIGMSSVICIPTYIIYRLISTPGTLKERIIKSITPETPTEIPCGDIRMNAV
The experiment can be described thus: [3H]5-HT uptake assay, hippocampal synaptosomes. It counts as biochemical.

For experiment [3], the system named is methamphetamine-evoked endogenous DA release from striatal slices. The experiment can be described thus: Methamphetamine-evoked endogenous DA overflow from superfused striatal slices. The experiment is classed as cell-based. As to conditions: read-out: Inhibition of Methamphetamine Evoked DA Overflow IC50 (Mean).
The target of the next experiment is α6β2* nicotinic receptor (Rattus norvegicus, UniProt P12390+P43143). Nature of the experiment: Nicotine-evoked [3H]DA overflow from superfused striatal slices. It counts as cell-based.
α6β2* nicotinic receptor, sequence (P43143 31-493): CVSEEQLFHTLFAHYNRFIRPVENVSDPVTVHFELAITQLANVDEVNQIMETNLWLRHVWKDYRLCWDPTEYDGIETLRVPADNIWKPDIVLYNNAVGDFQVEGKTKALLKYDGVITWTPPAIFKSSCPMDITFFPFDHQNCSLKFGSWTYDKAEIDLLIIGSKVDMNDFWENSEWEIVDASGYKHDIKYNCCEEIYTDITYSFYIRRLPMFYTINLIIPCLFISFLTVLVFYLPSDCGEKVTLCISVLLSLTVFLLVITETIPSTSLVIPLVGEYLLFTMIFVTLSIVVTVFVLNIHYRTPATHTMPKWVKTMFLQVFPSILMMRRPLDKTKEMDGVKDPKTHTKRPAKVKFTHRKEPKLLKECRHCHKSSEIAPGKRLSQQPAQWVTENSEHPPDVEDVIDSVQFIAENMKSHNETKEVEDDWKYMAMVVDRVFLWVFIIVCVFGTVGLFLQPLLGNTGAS
α6β2* nicotinic receptor, sequence (P12390 25-500): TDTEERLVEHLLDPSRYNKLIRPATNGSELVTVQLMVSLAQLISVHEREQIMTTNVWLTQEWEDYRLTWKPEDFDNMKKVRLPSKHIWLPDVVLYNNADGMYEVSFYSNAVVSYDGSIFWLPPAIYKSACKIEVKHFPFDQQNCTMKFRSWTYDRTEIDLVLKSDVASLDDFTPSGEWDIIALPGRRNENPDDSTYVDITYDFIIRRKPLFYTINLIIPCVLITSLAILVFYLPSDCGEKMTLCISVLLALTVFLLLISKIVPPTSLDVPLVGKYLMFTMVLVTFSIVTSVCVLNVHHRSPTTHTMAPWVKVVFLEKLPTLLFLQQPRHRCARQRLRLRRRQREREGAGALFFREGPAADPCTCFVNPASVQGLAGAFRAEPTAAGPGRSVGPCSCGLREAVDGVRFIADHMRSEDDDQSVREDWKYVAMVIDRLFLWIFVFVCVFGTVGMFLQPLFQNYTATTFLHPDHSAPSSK
The mark [4] stands for this setting: Table 3, earlier study, read-out: Ki [3H]-Nicotine Binding Assay.
[5] abbreviates: Table 1, rat striatal membranes, read-out: [3H]Nicotine Binding (Ki) α4β2*.
The mark [6] stands for this setting: Table 1, rat whole brain membranes, read-out: [3H]MLA Binding (Ki) α7*.
Where [7] appears, read: Table 3, earlier study, read-out: Ki [3H]-Dopamine Uptake Assay.
Setting [8] is: Table 1, read-out: [3H]5-HT Uptake (Ki) SERT.
The mark [9] stands for this setting: Table 1, read-out: [3H]DA Uptake (Ki).

SMILES strings stand for the structures. Read-outs that look alike come from different tables or passages of the source. Bounds are passed on as bounds.

What is called Ki is a measure of affinity in units of concentration, obtained from inhibition or displacement. The term IC50 denotes the concentration that inhibits the measured activity by half.

α4β2* nicotinic receptor, sequence (P09483 31-630): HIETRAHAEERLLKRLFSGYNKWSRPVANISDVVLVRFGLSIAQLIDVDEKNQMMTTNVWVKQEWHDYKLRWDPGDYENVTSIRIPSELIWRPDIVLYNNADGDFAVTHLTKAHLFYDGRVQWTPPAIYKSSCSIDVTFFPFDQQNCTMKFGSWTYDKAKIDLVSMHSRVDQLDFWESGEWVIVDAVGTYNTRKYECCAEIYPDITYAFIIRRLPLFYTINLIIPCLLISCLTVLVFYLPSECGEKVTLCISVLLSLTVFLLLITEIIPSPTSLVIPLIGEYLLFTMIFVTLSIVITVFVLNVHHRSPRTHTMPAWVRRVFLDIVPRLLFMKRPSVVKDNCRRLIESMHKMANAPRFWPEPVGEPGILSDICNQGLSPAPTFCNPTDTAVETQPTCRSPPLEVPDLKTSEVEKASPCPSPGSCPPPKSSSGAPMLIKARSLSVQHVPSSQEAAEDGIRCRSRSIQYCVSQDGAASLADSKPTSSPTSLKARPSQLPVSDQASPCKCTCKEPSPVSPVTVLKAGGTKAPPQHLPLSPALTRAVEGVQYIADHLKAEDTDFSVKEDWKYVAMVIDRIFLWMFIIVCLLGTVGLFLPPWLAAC
α4β2* nicotinic receptor, sequence (P12390 25-500): as the sequence (P12390 25-500) above
T2 sequence (Q05941 23-502): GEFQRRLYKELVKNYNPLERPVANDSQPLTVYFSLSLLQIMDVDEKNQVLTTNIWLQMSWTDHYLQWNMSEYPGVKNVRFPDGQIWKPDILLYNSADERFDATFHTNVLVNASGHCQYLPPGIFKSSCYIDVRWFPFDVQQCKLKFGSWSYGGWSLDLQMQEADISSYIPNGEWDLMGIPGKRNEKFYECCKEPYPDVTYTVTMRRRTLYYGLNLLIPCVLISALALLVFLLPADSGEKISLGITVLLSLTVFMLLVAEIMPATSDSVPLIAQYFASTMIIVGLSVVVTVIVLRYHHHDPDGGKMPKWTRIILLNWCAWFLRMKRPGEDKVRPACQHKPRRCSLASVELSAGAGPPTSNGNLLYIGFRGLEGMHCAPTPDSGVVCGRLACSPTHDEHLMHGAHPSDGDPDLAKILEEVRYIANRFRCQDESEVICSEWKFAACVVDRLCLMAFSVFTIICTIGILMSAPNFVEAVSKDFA

As for `CN1[C@H](CCc2ccccc2)CCC[C@@H]1CC(O)c1ccccc1` (mixture of isomers) [Compound 60], the Ki on α4β2* nicotinic receptor (setting [4]) worked out at 0.16 µM; in experiment [1] (Ki [3H]-Dopamine Uptake Assay) it was 8.9 µM.

Turning to `CN1[C@@H](C[C@H](O)c2ccccc2)CCC[C@H]1/C=C/c1ccccc1` (relative stereo) [Compound 7, N-Methyl-2R-(2S-hydroxy-2-phenethyl)-6S-trans-styrylpiperidine], the Ki was more than 100 µM on α4β2* nicotinic receptor (setting [5]), 4.2 µM at α4β2* nicotinic receptor (setting [4]), more than 100 µM at α7* nicotinic receptor (setting [6]) and 1.3 µM in experiment [1] (setting [7]). Also, the “loss of affinity for the nicotinic receptor compared to lobeline” value on α4β2* nicotinic receptor (earlier study (Table 3)) is on record as 1000 fold.

As for `CN1C(CC(=O)c2ccccc2)CCCC1CC(O)c1ccccc1` (stereo not drawn) [Compound 1, 2-[6-(β-hydroxyphenethyl)-1-methyl-2-piperidyl]-acetophenone, reference compound], the Ki in experiment [2] (setting [8]) was 25.7 µM; in experiment [1] (setting [9]) it was 29.4 µM; in experiment [1] (setting [7]), 45 µM.

Turning to `CN1[C@@H](CC(=O)c2ccccc2)CCC[C@H]1CC(=O)c1ccccc1` [Compound 3], the Ki came out at 37.1 µM at α4β2* nicotinic receptor (setting [5]); 11 µM on α4β2* nicotinic receptor (setting [4]); 3.31 µM in experiment [2] (setting [8]); 22.7 µM on α7* nicotinic receptor (setting [6]); 15.8 µM in experiment [1] (setting [9]); 25 µM in experiment [1] (setting [7]).

For `CN1[C@@H](C[C@@H](O)c2ccccc2)CCC[C@H]1C[C@H](O)c1ccccc1` [Compound 4, lobelanidine], the Ki was determined as 3.1 µM at α4β2* nicotinic receptor (setting [5]); 0.93 µM on α4β2* nicotinic receptor (setting [4]); 25.6 µM in experiment [2] (setting [8]); 3.29 µM on α7* nicotinic receptor (setting [6]); 33.3 µM in experiment [1] (setting [9]); 54 µM in experiment [1] (setting [7]). In addition, the “inhibition of DAT, potency compared with lobeline” value in experiment [1] (Table 1 data) and in experiment [1] (earlier study (Table 3)) was “equipotently” throughout.

`CN1[C@H](C[C@H](O)c2ccccc2)CCC[C@@H]1/C=C/c1ccccc1` [Compound 8]: the Ki on α4β2* nicotinic receptor (setting [5]) was 9.8 µM; at α7* nicotinic receptor, more than 100 µM.

Regarding `CN1[C@H](CCc2ccccc2)CCC[C@@H]1C[C@@H](O)c1ccccc1` [Compound 10, N-Methyl-2R-(2R-hydroxy-2-phenethyl)-6S-(2-phenethyl) piperidine], the Ki at α4β2* nicotinic receptor (setting [5]) is more than 100 µM; in experiment [2] (Table 1, data of a mixture of compound 10 and 11, read-out: [3H]5-HT Uptake (Ki) SERT), 0.01 µM; in experiment [2] (read-out: inhibition of serotonin uptake Ki), 0.01 to 0.38 µM; on α7* nicotinic receptor (setting [6]), 1.25 µM; in experiment [1] ([3H]DA Uptake (Ki)) it was 6.62 µM.

Take `CN1[C@H](CCc2ccccc2)CCC[C@@H]1C[C@H](O)c1ccccc1` [Compound 11, N-Methyl-2R-(2S-hydroxy-2-phenethyl)-6S-(2-phenethyl) piperidine]: the values for the Ki on α4β2* nicotinic receptor (setting [5]) and at α7* nicotinic receptor (setting [6]) were 32 µM and more than 100 µM, respectively.

`CN1[C@@H](CCc2ccccc2)CCC[C@H]1C[C@H](O)c1ccccc1` [Compound 12]: the Ki was 1.21 µM at α4β2* nicotinic receptor (setting [5]) and 36.4 µM on α7* nicotinic receptor (setting [6]).

In the case of `CN1[C@@H](CCc2ccccc2)CCC[C@H]1CCc1ccccc1` [Compound 17, N-methyl-2,6-cis-di-(2-phenethyl)piperidine], the Ki is 77 µM at α4β2* nicotinic receptor (setting [5]); 14.3 µM on α4β2* nicotinic receptor (setting [4]); 1.59 µM in experiment [2] ([3H]5-HT Uptake (Ki) SERT); 43.1 µM on α7* nicotinic receptor (setting [6]); 3 µM in experiment [1] (Ki [3H]-Dopamine Uptake Assay); 1.95 µM in experiment [1] ([3H]DA Uptake (Ki)). Also, the half-inhibitory concentration (IC50) is 0.43 to 1.25 µM in experiment [3] (Rattus norvegicus) and 0.44 µM in experiment [3] (superfused rat striatal slices).

On to `CN1[C@@H](CCc2ccccc2)CCC[C@@H]1CCc1ccccc1` [Compound 19, N-methyl-2R,6R-trans-di-(2-phenethyl)piperidine], for which, in experiment [3] (Rattus norvegicus), the IC50 is more than 100 µM.

As to `c1ccc(CC[C@H]2CCC[C@@H](CCc3ccccc3)N2)cc1` [Compound 25, 2,6-cis-diphenethylpiperidine], the Ki at α4β2* nicotinic receptor (setting [5]) was more than 100 µM; in experiment [2] (setting [8]) it was 2.51 µM; on α7* nicotinic receptor it was more than 100 µM; in experiment [1] (setting [9]) it was 1.03 µM. For the same molecule, the IC50 at α6β2* nicotinic receptor (Table 1, inhibition of 10 μM S(−)-nicotine, NI: no inhibition, read-out: Inhibition of Nicotine-Evoked [3H]DA Overflow (IC50) α6β2*) was 0.1 µM; at α6β2* nicotinic receptor (read-out: inhibition of nicotine-evoked [3H]DA overflow IC50), 0.1 to 1 µM.

Turning to `CCN1[C@@H](CCc2ccccc2)CCC[C@H]1CCc1ccccc1` [Compound 26, N-ethyl-2,6-cis-diphenethylpiperidine], the Ki at α4β2* nicotinic receptor (setting [5]) and on α7* nicotinic receptor was more than 100 µM throughout.

Turning to `CCCN1[C@@H](CCc2ccccc2)CCC[C@H]1CCc1ccccc1` [Compound 27, N-(n-propyl)-2,6-cis-diphenethylpiperidine], the Ki at α4β2* nicotinic receptor (setting [5]) and on α7* nicotinic receptor was more than 100 µM each time.

As for `c1cc2c(cc1CC[C@H]1CCC[C@@H](CCc3ccc4c(c3)OCO4)N1)OCO2` [Compound 28], the Ki at α4β2* nicotinic receptor (setting [5]) and at α7* nicotinic receptor (setting [6]) was more than 100 µM each time.

With `Fc1ccccc1CC[C@H]1CCC[C@@H](CCc2ccccc2F)N1` [Compound 30, 2,6-cis-di-(o-fluorophenethyl)piperidine], the Ki on α4β2* nicotinic receptor (setting [5]) and on α7* nicotinic receptor (setting [6]) was more than 100 µM in each case.

With `CN1[C@@H](CCc2ccccc2F)CCC[C@H]1CCc1ccccc1F` [Compound 31, N-methyl-2,6-cis-di-(o-fluorophenethyl)piperidine], the Ki on α4β2* nicotinic receptor (setting [5]) and on α7* nicotinic receptor (setting [6]) was more than 100 µM throughout.

On to `Fc1cccc(CC[C@H]2CCC[C@@H](CCc3cccc(F)c3)N2)c1` [Compound 32, 2,6-cis-di-(m-fluorophenethyl)piperidine], for which, on α7* nicotinic receptor (setting [6]), the Ki is more than 100 µM.

Take `CN1[C@@H](CCc2cccc(F)c2)CCC[C@H]1CCc1cccc(F)c1` [Compound 33, N-methyl-2,6-cis-di-(m-fluorophenethyl)piperidine]: the Ki on α4β2* nicotinic receptor (setting [5]) and on α7* nicotinic receptor (setting [6]) was more than 100 µM throughout.

As to `Fc1ccc(CC[C@H]2CCC[C@@H](CCc3ccc(F)cc3)N2)cc1` [Compound 34, 2,6-cis-di-(p-fluorophenethyl)piperidine], the Ki on α4β2* nicotinic receptor (setting [5]) and on α7* nicotinic receptor (setting [6]) was more than 100 µM each time.

`CN1[C@@H](CCc2ccc(F)cc2)CCC[C@H]1CCc1ccc(F)cc1` [Compound 35, N-methyl-2,6-cis-di-(p-fluorophenethyl)piperidine]: the Ki on α4β2* nicotinic receptor (setting [5]) and on α7* nicotinic receptor (setting [6]) was more than 100 µM throughout.

As to `COc1ccccc1CC[C@H]1CCC[C@@H](CCc2ccccc2OC)N1` [Compound 36, 2,6-cis-di-(o-methoxyphenethyl)piperidine], the inhibitory constant (Ki) on α4β2* nicotinic receptor (setting [5]) and on α7* nicotinic receptor (setting [6]) was more than 100 µM each time.

Turning to `COc1cccc(CC[C@H]2CCC[C@@H](CCc3cccc(OC)c3)N2)c1` [Compound 38, 2,6-cis-di-(m-methoxyphenethyl)piperidine], the Ki at α4β2* nicotinic receptor (setting [5]) and at α7* nicotinic receptor (setting [6]) was more than 100 µM throughout.

Consider `COc1ccc(CC[C@H]2CCC[C@@H](CCc3ccc(OC)cc3)N2)cc1` [Compound 40, 2,6-cis-di-(p-methoxyphenethyl)piperidine], for which the Ki on α4β2* nicotinic receptor (setting [5]) and on α7* nicotinic receptor (setting [6]) was more than 100 µM each time.

Turning to `COc1ccc(CC[C@H]2CCC[C@@H](CCc3ccc(OC)cc3)N2C)cc1` [Compound 41, N-methyl-2,6-cis-di-(p-methoxyphenethyl)piperidine], the Ki on α4β2* nicotinic receptor (setting [5]) and on α7* nicotinic receptor (setting [6]) was more than 100 µM in each case.

Turning to `Cc1ccc(CC[C@H]2CCC[C@@H](CCc3ccc(C)cc3)N2)cc1` [Compound 42, 2,6-cis-di-(p-methylphenethyl)piperidine], the Ki at α4β2* nicotinic receptor (setting [5]) and on α7* nicotinic receptor (setting [6]) was more than 100 µM each time.

`Cc1ccc(CC[C@H]2CCC[C@@H](CCc3ccc(C)cc3)N2C)cc1` [Compound 43, N-methyl-2,6-cis-di-(p-methylphenethyl)piperidine]: on α7* nicotinic receptor (setting [6]), the Ki was more than 100 µM.

Take `FC(F)(F)c1cccc(CC[C@H]2CCC[C@@H](CCc3cccc(C(F)(F)F)c3)N2)c1` [Compound 44, 2,6-cis-di-(m-trifluoromethylphenethyl)piperidine]: the Ki on α4β2* nicotinic receptor (setting [5]) and at α7* nicotinic receptor (setting [6]) was more than 100 µM in each case.

`CN1[C@@H](CCc2cccc(C(F)(F)F)c2)CCC[C@H]1CCc1cccc(C(F)(F)F)c1` [Compound 45, N-methyl-2,6-cis-di-(m-trifluoromethylphenethyl)piperidine]: the Ki at α4β2* nicotinic receptor (setting [5]) and on α7* nicotinic receptor (setting [6]) was more than 100 µM in each case.

As to `OCc1ccc(CC[C@H]2CCC[C@@H](CCc3ccc(CO)cc3)N2)cc1` [Compound 48, 2,6-cis-di-(p-hydroxymethylphenethyl)piperidine], the Ki at α4β2* nicotinic receptor (setting [5]) and at α7* nicotinic receptor (setting [6]) was more than 100 µM throughout.

Regarding `CC(=O)OCc1ccc(CC[C@H]2CCC[C@@H](CCc3ccc(COC(C)=O)cc3)N2)cc1` [Compound 49, 2,6-cis-di-(p-acetoxymethylphenethyl)piperidine], the Ki at α4β2* nicotinic receptor (setting [5]) and at α7* nicotinic receptor (setting [6]) was more than 100 µM throughout.

For `Clc1ccc(CC[C@H]2CCC[C@@H](CCc3ccc(Cl)cc3Cl)N2)c(Cl)c1` [Compound 50, 2,6-cis-di-(2,4-dichlorophenethyl)piperidine], the Ki at α4β2* nicotinic receptor (setting [5]) and at α7* nicotinic receptor (setting [6]) was more than 100 µM throughout.

Take `CN1[C@@H](CCc2ccc(Cl)cc2Cl)CCC[C@H]1CCc1ccc(Cl)cc1Cl` [Compound 51, N-methyl-2,6-cis-di-(2,4-dichlorophenethyl)piperidine]: the Ki on α4β2* nicotinic receptor (setting [5]) and at α7* nicotinic receptor (setting [6]) was more than 100 µM in each case.

Source of the values: patent US7368443B2, “2,6-disubstituted piperidines and piperazine compounds” (University of Kentucky Research Foundation, priority 1999, dated 2008).
